Here are results for five compounds from US20250082640A1, “Therapeutics for Hyponatremia and Polycystic Kidney Disease” (University of Cincinnati, priority 2021, published 2025).

One data set relates to Male Sprague Dawley rats. In words: Metabolic cage study of rats fed diet containing R2-ADN or adenine (Example 1, Table 1). Type of data set: in vivo, rat. The conditions noted are these: for Urine osmolality, Average Baseline / Urine osmolality, Baseline Day 1 / Urine osmolality, Baseline Day 2: baseline before treatment; for Urine osmolality, Day 1: treatment day 1; for Urine osmolality, Day 2: treatment day 2; for Urine osmolality, Day 3: treatment day 3; for Urine osmolality, Day 4: treatment day 4; for Urine osmolality, Day 5: treatment day 5; for Urine osmolality, Day 6: treatment day 6. An excerpt:
The effects of R2-ADN on these physiologic parameters are dose- and time-dependent.
In addition, the effects of adenine (ADN) were compared to those of R2-ADN on these physiologic parameters.
Male Sprague Dawley rats were placed in metabolic cages and fed powdered rodent chow with access to distilled water ad libitum. After adjustment, baseline data were collected for 2 days and then rats were randomly divided into different groups. […]

The subject of the next data set is Rats. In words: Metabolic cage study of rats fed diet supplemented with R3-AND or R4-AND (Example 2). Type of data set: in vivo, rat. The conditions noted are these: for food intake / water intake / urine volume / urine osmolality: day 4, in diet (R4-ADN at 0.15% weight/weight); for food intake: vs control (FIG. 7A); for water intake: vs control (FIG. 7B); for urine volume: vs control (FIG. 7C); for urine osmolality: vs control (FIG. 7D).

A further data set has as its system salt transporter NKCC2. The following applies: rat kidney medullary thick ascending limb, high dose; cited from earlier work.
Data set [1] concerns water channel aquaporin 2 (AQP2). The following applies: rat kidney collecting duct system, high dose; cited from earlier work.
The test system of the next data set is 45 strains of mice. The conditions noted are these: single oral dose; cited from earlier work.
Data set [2] has as its system primary human hepatocytes. The following applies: in vitro; cited from earlier work.
[3] abbreviates: rats of the 0.15% in diet group.
The mark [4] stands for this setting: rats, 0.15% in diet, adenine vs R2-ADN.
The mark [5] stands for this setting: rats of the 0.20% in diet group.
Where [6] appears, read: rats of the 0.25% in diet group.

The structures appear in SMILES notation.

For `Nc1nc(Cl)nc2nc[nH]c12` [R2-ADN, 2-chloro-6-aminopurine], the “potency relative to adenine in effects on water handling / water loss by the kidney” value in the data set with Male Sprague Dawley rats (rats) was “more potent than adenine”. Moreover, in the data set with Male Sprague Dawley rats (setting [3]), the “Urine osmolality, Average Baseline” value came to 1558 mosm/kg H2O; the “Urine osmolality, Baseline Day 1” value stood at 1614 mosm/kg H2O; the “Urine osmolality, Baseline Day 2” value is reported as 1502 mosm/kg H2O. Also, the water intake result in the data set with Male Sprague Dawley rats (rats, 0.075%, 0.15% or 0.25% in diet, 7 days, vs baseline and control, dose- and time-dependent (FIGS. 1A-1D)) was “significant increase”. Also, the urine volume entry in the data set with Male Sprague Dawley rats (rats, 0.075%, 0.15% or 0.25% in diet, 7 days, vs baseline and control, dose- and time-dependent (FIGS. 2A-2D)) was “significant increase”. For the same compound, the urine osmolality entry in the data set on Male Sprague Dawley rats (rats, 0.075%, 0.15% or 0.25% in diet, 7 days, vs baseline or control, dose- and time-dependent (FIGS. 3A-3D)) is recorded as “sharp reduction”. Besides, in the data set on Male Sprague Dawley rats (setting [4]), the urine osmolality entry is recorded as “significantly impaired” and the “urine volume / daily water balance” value is given as “significantly impaired”. Also, in the data set with Male Sprague Dawley rats (rats, 0.15% in diet), the “Urine osmolality, Day 1” value was 1085 mosm/kg H2O; the “Urine osmolality, Day 2” value stood at 625 mosm/kg H2O; the “Urine osmolality, Day 3” value is 720 mosm/kg H2O; the “Urine osmolality, Day 4” value turned out to be 649 mosm/kg H2O. Besides, in the data set on Male Sprague Dawley rats (rats, 0.15% in diet), the “Urine osmolality, Day 5” value was 657 mosm/kg H2O and the “Urine osmolality, Day 6” value amounted to 508 mosm/kg H2O. In addition, the “reduction in urine osmolality” value with Male Sprague Dawley rats (rats, 0.15% in diet, within the second day of treatment) is roughly 60%. Also, the food intake entry in the data set on Male Sprague Dawley rats (rats, high dose (0.25%), day 7 of feeding) is listed as “significant reduction”. For the same compound, the food intake entry with Male Sprague Dawley rats (rats, lower doses in diet (FIGS. 4A-4D)) is “did not significantly alter”. Besides, in the data set on Male Sprague Dawley rats (rats, vs control group (FIGS. 5A-5D)), the “changes in body weight” value is given as “impacted the changes in body weight”.
Take `O=C(Nc1ncnc2nc[nH]c12)c1ccccc1` [R3-AND, N6-benzoyladenine]: in the data set on Rats, the food intake result is recorded as “none of the measured parameters”, the water intake entry was “none of the measured parameters”, the urine volume result is “none of the measured parameters” and the urine osmolality result is “none of the measured parameters”.
For the compound `Nc1ncnc2nc[nH]c12` [ADN, adenine], in the data set with salt transporter NKCC2, the “NKCC2 gene expression and protein abundance” value is “decreasing the gene expression and protein abundance”. In the data set on Male Sprague Dawley rats (setting [3]), the “Urine osmolality, Average Baseline” value was 1890 mosm/kg H2O; the “Urine osmolality, Baseline Day 1” value amounted to 1848 mosm/kg H2O; the “Urine osmolality, Baseline Day 2” value is on record as 1933 mosm/kg H2O. In the data set with Male Sprague Dawley rats (setting [5]), the “Urine osmolality, Average Baseline” value was determined as 1619 mosm/kg H2O; the “Urine osmolality, Baseline Day 1” value was determined as 1638 mosm/kg H2O; the “Urine osmolality, Baseline Day 2” value came to 1599 mosm/kg H2O. Moreover, in the data set with Male Sprague Dawley rats (setting [6]), the “Urine osmolality, Average Baseline” value was 1529 mosm/kg H2O; the “Urine osmolality, Baseline Day 1” value turned out to be 1648 mosm/kg H2O; the “Urine osmolality, Baseline Day 2” value is reported as 1410 mosm/kg H2O. For the same compound, in the data set on Male Sprague Dawley rats (setting [4]), the urine osmolality result is given as “no effect” and the “urine volume / daily water balance” value is “no effect”. For the same compound, in the data set with Male Sprague Dawley rats (rats, 0.15% in diet), the “Urine osmolality, Day 1” value amounted to 1750 mosm/kg H2O; the “Urine osmolality, Day 2” value was found to be 1752 mosm/kg H2O; the “Urine osmolality, Day 3” value amounted to 1770 mosm/kg H2O; the “Urine osmolality, Day 4” value was found to be 1671 mosm/kg H2O. Besides, in the data set on Male Sprague Dawley rats (rats, 0.15% in diet), the “Urine osmolality, Day 5” value turned out to be 1700 mosm/kg H2O and the “Urine osmolality, Day 6” value was found to be 1738 mosm/kg H2O. Further, in the data set with Male Sprague Dawley rats (rats, 0.20% in diet), the “Urine osmolality, Day 1” value is reported as 1475 mosm/kg H2O; the “Urine osmolality, Day 2” value was found to be 1371 mosm/kg H2O; the “Urine osmolality, Day 3” value was determined as 1354 mosm/kg H2O; the “Urine osmolality, Day 4” value came to 1296 mosm/kg H2O. Besides, in the data set with Male Sprague Dawley rats (rats, 0.20% in diet), the “Urine osmolality, Day 5” value was found to be 1279 mosm/kg H2O and the “Urine osmolality, Day 6” value is reported as 1386 mosm/kg H2O. Further, in the data set on Male Sprague Dawley rats (rats, 0.25% in diet), the “Urine osmolality, Day 1” value is on record as 1198 mosm/kg H2O; the “Urine osmolality, Day 2” value is reported as 848 mosm/kg H2O; the “Urine osmolality, Day 3” value amounted to 976 mosm/kg H2O; the “Urine osmolality, Day 4” value stood at 1019 mosm/kg H2O. In addition, in the data set with Male Sprague Dawley rats (rats, 0.25% in diet), the “Urine osmolality, Day 5” value stood at 938 mosm/kg H2O and the “Urine osmolality, Day 6” value worked out at 956 mosm/kg H2O. In addition, the “AQP2 gene expression and protein abundance” value in data set [1] is “decreasing the gene expression and protein abundance”.
Turning to `CN(C)c1ncnc2nc[nH]c12` [R4-ADN, 6-(Dimethylamino) purine], in the data set on Rats, the “potency relative to adenine in increasing water loss by the kidney” value is on record as “more potent than adenine”, the food intake entry is listed as “significant reduction”, the water intake result was “significant increase” and the urine volume entry is “significant increase”. Besides, in the data set with Rats, the urine osmolality result is reported as “sharp reduction”.
As to `Cc1ccccc1C(=O)Nc1ccc(C(=O)N2CCCC(O)c3cc(Cl)ccc32)c(C)c1` (stereo not shown) [tolvaptan], in the data set with 45 strains of mice, the “signs of liver injury mechanisms” value was “signs of mitochondrial dysfunction, increased oxidative stress, and activation of immune response”. In data set [2], the hepatocyte toxicity result was “causes mitochondrial-induced apoptosis and oxidative stress”.
